In patent US8916526B2, “Flavanone derivative” (National University Corporation Okayama University, priority 2009, dated 2014):
Values after ≈ are worked out from the molar mass of the structure shown. Like-named read-outs stand apart in the source and are kept apart here.

Assays:
[1] = system: Vancomycin intermediate-resistant Staphylococcus aureus Mu50; test: In vitro infectivity assay (MIC), Exp. Ex. 2-1; type: cell-based; conditions: Gram-positive; microdilution, MIC after 24 h
Protocol: (§1) The antibacterial activities were measured based on broth dilution techniques of international standards (Clinical Laboratory Standards Institute: CLSI). The activities were shown by minimum inhibitory concentrations (MICs) determined by inoculating the above-mentioned strains at a concentration of about 10^5 […] into Mueller-Hinton broth (manufactured by Difco) containing 0.85% NaCl in 96-well microplates and incubating the plates at 35° C. for 24 hours. Measurement was carried out three times.
(§2) The antibacterial activities of the compounds of the present invention against various strains such as vancomycin-resistant enterococci (VRE), vancomycin intermediate-resistant Staphylococcus aureus (VISA), methicillin-resistant Staphylococcus aureus (MRSA), and methicillin-sensitive Staphylococcus aureus (MSSA) were examined. Of the bacteria used in MIC measurement in this test example, clinical bacteria of MRSA (OM481 strain and OM584 strain) were supplied from Okayama University Hospital (Japan). An MRSA strain N315, a vancomycin intermediate-resistant Staphylococcus aureus (VISA) strain Mu50, and a methicillin-sensitive Staphylococcus aureus (MSSA) strain FDA 209P were used as controls. Vancomycin-resistant enterococcus (VRE) strains NCTC 12201 and FN-1 were supplied from the National Institute of Infectious Disease (Japan).

[2] = system: Vancomycin-resistant enterococci FN-1; test: In vitro infectivity assay (MIC), Exp. Ex. 2-1; type: cell-based; conditions: Gram-positive; microdilution, MIC after 24 h
Protocol: as §1, §2

[3] = system: Vancomycin-resistant enterococci NCTC 12201; test: In vitro infectivity assay (MIC), Exp. Ex. 2-1; type: cell-based; conditions: Gram-positive; microdilution, MIC after 24 h
Protocol: as §1, §2

[4] = system: Methicillin sensitive S. aureus 209P; test: In vitro infectivity assay (MIC), Exp. Ex. 2-1; type: cell-based, Staphylococcus aureus; conditions: Gram-positive, microdilution, MIC after 24 h
Protocol: as §1, §2

[5] = system: Methicillin-resistant S. aureus COL; test: In vitro infectivity assay (MIC), Exp. Ex. 2-1; type: cell-based, Staphylococcus aureus; conditions: Gram-positive, microdilution, MIC after 24 h
Protocol: as §1, §2

[6] = system: Methicillin-resistant S. aureus N315; test: In vitro infectivity assay (MIC), Exp. Ex. 2-1; type: cell-based, Staphylococcus aureus; conditions: Gram-positive, microdilution, MIC after 24 h
Protocol: as §1, §2

[7] = system: Methicillin-resistant S. aureus OM481; test: In vitro infectivity assay (MIC), Exp. Ex. 2-1; type: cell-based, Staphylococcus aureus; conditions: Gram-positive, microdilution, MIC after 24 h
Protocol: as §1, §2

[8] = system: Methicillin-resistant S. aureus OM584; test: In vitro infectivity assay (MIC), Exp. Ex. 2-1; type: cell-based, Staphylococcus aureus; conditions: Gram-positive, microdilution, MIC after 24 h
Protocol: as §1, §2

[9] = system: Streptococcus pneumoniae R6; test: In vitro infectivity assay (MIC), Exp. Ex. 2-1; type: cell-based
[10] = system: Escherichia coli K-12; test: Antibacterial activity (MIC) against Gram-negative strains, microdilution; type: cell-based
Protocol: as §1

[11] = system: Pseodomonas aeruginosa PAOI; test: as above; type: cell-based; conditions: MIC after 24 h
Protocol: as §1

[12] = target: T1, E. coli DNA gyrase (Escherichia coli, UniProt P0AES4+P0AES6); test: DNA gyrase inhibition (supercoiling kit), Exp. Ex. 2-2; type: biochemical
T1 construct: purchased John Innes Enterprises #K0001
Protocol: (§3) As a kit for measurement of DNA gyrase of Escherichia coli, a product purchased from John Innes Enterprises (Gyrase Supercoiling assay kit #K0001) was used. Relaxed DNA was modified with gyrase into supercoiled DNA, and reaction products were separated by electrophoresis depending on the sizes of the molecular weights to examine anti-gyrase effects (IC50). 1 unit (1 U) of DNA gyrase and […] of relaxed pBR322 DNA were added to […] of the reaction solution, and the mixture was allowed to react at 37° C. for 30 minutes in the presence of 35 mM Tris-HCl (pH 7.5), 24 mM KCl, 4 mM MgCl2, 2 mM DTT, 1.8 mM spermidine, 1 mM ATP, 6.5% (w/v) glycerol, and 0.1 mg/ml BSA. The reactions were stopped using […] of a reaction stop solution (40% sucrose, 100 mM Tris-HCl (pH 7.5), 1 mM EDTA, 0.5 mg/ml bromophenol blue).

[13] = target: T2, Escherichia coli Topoisomerase IV (Escherichia coli, UniProt P0AFI2+P20083); test: Topoisomerase IV inhibition (decatenation kit), Exp. Ex. 2-3; type: biochemical; conditions: decatenation of kDNA, 37° C., 30 minutes; read-out: IC50 (E. coli topoisomerase IV inhibitions)
T2 construct: purchased John Innes Enterprises
Protocol: (§4) Staphylococcus aureus Topoisomerase IV and Escherichia coli Topoisomerase IV were purchased from John Innes Enterprises. 1 unit of topoisomerase IV was cultured with 200 ng of kinetoplast DNA (kDNA) in 30 L of a reaction solution at 37° C. for 30 minutes under the conditions of 50 mM Tris-HCl (pH 7.5) (S. aureus)/50 mM HEPES-KOH (pH 7.6) (E. coli), 5 mM MgCl2 (S. aureus)/5 mM magnesium acetate (E. coli), 350 mM potassium glutamate (S. aureus)/100 mM potassium glutamate (E. coli), 5 mM dithiotheri (S. aureus)/10 mM dithiotheri (E. coli), 1.5 mM ATP (S. aureus)/1 mM ATP (E. coli), and 40% (w/v) glycerol. The reactions were stopped by adding 8 L of a reaction stop solution (40% sucrose, 100 mM Tris.HCl (pH 7.5), 1 mM EDTA, 0.5 mg/ml bromophenol blue). Agarose gel (1.0%) was poured into TAE (40 mM Tris acetate, 2 mM EDTA).

[14] = target: T3, Staphylococcus aureus Topoisomerase IV (Staphylococcus aureus, UniProt P0C1S7+P0C1U9); test: as above; type: biochemical; conditions: decatenation of kDNA, 37° C., 30 minutes; read-out: IC50 (S. aureus topoisomerase IV inhibitions)
T3 construct: purchased John Innes Enterprises
Protocol: as §4

[15] = system: MRSA N315; test: In vitro infectivity assay (MIC), broth dilution, Exp. Ex. 1-1; type: cell-based, Staphylococcus aureus; conditions: MRSA N315, Mueller-Hinton broth, 35° C., 24 hours
Protocol: as §1
(§5) The antibacterial activities of the compounds of the present invention against various strains such as methicillin-resistant Staphylococcus aureus (MRSA), vancomycin intermediate-resistant Staphylococcus aureus (VISA), methicillin-sensitive Staphylococcus aureus (MSSA), and vancomycin-resistant enterococci (VRE) were examined. Of the bacteria used in MIC measurement in this test example, clinical bacteria of MRSA (OM481 strain and OM584 strain) were supplied from Okayama University Hospital (Japan). An MRSA strain N315, a vancomycin intermediate-resistant Staphylococcus aureus (VISA) strain Mu50, and a methicillin-sensitive Staphylococcus aureus (MSSA) strain FDA 209P were used as controls. Vancomycin-resistant enterococcus (VRE) strains NCTC 12201 and FN-1 were supplied from the National Institute of Infectious Disease (Japan).

[16] = system: MRSA OM481; test: as above; type: cell-based, Staphylococcus aureus; conditions: MRSA OM481, Mueller-Hinton broth, 35° C., 24 hours
Protocol: as §1, §5

[17] = system: MRSA OM58; test: as above; type: cell-based, Staphylococcus aureus; conditions: MRSA OM58, Mueller-Hinton broth, 35° C., 24 hours
Protocol: as §1, §5

[18] = system: MSSA FDA 209P; test: as above; type: cell-based, Staphylococcus aureus; conditions: MSSA FDA 209P, Mueller-Hinton broth, 35° C., 24 hours
Protocol: as §1, §5

[19] = system: VISA Mu50; test: as above; type: cell-based, Staphylococcus aureus; conditions: VISA Mu50; Mueller-Hinton broth, 35° C., 24 hours
Protocol: as §1, §5

[20] = system: VRE FN-1; test: as above; type: cell-based, enterococci; conditions: VRE FN-1; Mueller-Hinton broth, 35° C., 24 hours
Protocol: as §1, §5

[21] = system: VRE NCTC12201; test: as above; type: cell-based, enterococci; conditions: VRE NCTC12201; Mueller-Hinton broth, 35° C., 24 hours
Protocol: as §1, §5

[22] = target: T4, DNA gyrase of Escherichia coli (Escherichia coli, UniProt P0AES4+P0AES6); test: DNA gyrase inhibition (supercoiling assay kit), Exp. Ex. 1-2; type: biochemical; conditions: E. coli DNA gyrase supercoiling, relaxed pBR322, 37° C., 30 minutes
T4 construct: purchased John Innes Enterprises #K0001
Protocol: as §3, with “(IC50). One” for “(IC50). 1”

T4 sequence (P0AES4 whole entry, one chain of several): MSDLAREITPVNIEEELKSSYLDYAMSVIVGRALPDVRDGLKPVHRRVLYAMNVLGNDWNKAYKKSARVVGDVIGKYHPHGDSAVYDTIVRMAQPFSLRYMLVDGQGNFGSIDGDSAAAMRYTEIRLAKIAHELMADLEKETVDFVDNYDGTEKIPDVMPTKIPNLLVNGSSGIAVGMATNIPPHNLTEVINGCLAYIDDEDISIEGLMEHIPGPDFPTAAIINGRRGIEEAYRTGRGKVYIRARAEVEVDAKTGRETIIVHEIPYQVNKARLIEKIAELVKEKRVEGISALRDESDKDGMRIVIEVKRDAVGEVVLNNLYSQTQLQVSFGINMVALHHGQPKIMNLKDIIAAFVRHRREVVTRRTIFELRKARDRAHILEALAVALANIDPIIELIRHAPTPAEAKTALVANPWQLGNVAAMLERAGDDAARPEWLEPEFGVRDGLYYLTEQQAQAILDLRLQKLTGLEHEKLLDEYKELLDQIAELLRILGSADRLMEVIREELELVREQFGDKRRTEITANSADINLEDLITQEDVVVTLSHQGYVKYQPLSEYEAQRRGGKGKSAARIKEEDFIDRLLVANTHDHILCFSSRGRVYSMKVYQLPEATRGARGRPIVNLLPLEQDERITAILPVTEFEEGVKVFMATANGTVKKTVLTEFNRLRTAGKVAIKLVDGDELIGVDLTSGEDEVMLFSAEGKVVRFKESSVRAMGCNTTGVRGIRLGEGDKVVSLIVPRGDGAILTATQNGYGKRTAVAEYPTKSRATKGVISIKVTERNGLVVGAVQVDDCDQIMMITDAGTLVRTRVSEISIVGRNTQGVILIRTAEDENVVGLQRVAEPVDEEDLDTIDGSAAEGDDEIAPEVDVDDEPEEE
T1 sequence (P0AES4 whole entry, one chain of several): as above
T3 sequence (P0C1U9 whole entry): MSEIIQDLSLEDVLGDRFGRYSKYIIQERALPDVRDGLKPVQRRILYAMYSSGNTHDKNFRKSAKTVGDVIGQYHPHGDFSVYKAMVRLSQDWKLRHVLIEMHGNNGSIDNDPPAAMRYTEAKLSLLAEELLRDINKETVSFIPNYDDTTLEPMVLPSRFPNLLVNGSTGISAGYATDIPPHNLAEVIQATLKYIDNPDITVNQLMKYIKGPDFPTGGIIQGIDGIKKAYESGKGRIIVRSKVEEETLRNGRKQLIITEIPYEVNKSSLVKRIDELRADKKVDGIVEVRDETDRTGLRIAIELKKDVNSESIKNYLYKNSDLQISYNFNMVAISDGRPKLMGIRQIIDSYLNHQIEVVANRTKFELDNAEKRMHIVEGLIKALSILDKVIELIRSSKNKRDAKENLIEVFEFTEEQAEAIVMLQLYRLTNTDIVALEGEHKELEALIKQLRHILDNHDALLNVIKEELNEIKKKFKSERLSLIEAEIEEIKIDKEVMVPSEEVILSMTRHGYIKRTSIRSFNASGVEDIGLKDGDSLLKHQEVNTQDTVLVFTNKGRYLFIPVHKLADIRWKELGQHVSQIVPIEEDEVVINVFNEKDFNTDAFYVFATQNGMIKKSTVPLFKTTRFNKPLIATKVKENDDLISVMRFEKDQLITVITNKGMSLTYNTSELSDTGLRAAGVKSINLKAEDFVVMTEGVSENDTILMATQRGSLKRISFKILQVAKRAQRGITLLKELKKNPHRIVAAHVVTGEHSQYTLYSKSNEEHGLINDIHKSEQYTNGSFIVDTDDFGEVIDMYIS
T3 sequence (P0C1S7 whole entry): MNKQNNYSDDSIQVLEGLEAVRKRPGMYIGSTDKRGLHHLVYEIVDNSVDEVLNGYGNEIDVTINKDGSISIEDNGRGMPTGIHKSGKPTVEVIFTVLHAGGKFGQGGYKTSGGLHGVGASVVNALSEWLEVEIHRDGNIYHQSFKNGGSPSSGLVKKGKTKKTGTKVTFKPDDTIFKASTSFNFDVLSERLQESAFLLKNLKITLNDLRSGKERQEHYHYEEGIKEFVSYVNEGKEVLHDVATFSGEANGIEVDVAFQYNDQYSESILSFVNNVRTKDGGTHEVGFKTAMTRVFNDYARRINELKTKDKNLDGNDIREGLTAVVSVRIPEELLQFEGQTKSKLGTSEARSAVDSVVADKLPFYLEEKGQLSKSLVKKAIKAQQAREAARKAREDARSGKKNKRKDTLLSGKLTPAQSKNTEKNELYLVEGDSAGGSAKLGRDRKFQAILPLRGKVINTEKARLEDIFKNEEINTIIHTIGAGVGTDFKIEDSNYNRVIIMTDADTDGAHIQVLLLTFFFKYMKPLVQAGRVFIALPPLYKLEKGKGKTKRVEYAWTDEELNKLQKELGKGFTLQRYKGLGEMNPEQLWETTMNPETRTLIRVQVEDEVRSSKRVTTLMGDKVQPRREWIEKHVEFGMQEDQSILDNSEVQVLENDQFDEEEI
T2 sequence (P20083 whole entry): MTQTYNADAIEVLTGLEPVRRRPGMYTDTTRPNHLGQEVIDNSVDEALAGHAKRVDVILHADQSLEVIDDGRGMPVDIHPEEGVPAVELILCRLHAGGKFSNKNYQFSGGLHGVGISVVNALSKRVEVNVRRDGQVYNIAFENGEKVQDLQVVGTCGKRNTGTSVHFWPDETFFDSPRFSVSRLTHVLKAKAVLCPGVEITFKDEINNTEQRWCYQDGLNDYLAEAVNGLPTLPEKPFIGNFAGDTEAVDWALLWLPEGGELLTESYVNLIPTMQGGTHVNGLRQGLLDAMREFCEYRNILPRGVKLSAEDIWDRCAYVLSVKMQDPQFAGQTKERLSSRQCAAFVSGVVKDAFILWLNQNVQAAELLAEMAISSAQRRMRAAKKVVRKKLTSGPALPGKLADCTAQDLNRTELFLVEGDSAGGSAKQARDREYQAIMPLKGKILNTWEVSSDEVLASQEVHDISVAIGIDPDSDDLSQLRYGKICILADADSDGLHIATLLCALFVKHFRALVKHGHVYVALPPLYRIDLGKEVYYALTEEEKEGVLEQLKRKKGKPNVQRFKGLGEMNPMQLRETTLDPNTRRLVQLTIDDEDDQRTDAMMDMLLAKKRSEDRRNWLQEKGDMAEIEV
T2 sequence (P0AFI2 whole entry): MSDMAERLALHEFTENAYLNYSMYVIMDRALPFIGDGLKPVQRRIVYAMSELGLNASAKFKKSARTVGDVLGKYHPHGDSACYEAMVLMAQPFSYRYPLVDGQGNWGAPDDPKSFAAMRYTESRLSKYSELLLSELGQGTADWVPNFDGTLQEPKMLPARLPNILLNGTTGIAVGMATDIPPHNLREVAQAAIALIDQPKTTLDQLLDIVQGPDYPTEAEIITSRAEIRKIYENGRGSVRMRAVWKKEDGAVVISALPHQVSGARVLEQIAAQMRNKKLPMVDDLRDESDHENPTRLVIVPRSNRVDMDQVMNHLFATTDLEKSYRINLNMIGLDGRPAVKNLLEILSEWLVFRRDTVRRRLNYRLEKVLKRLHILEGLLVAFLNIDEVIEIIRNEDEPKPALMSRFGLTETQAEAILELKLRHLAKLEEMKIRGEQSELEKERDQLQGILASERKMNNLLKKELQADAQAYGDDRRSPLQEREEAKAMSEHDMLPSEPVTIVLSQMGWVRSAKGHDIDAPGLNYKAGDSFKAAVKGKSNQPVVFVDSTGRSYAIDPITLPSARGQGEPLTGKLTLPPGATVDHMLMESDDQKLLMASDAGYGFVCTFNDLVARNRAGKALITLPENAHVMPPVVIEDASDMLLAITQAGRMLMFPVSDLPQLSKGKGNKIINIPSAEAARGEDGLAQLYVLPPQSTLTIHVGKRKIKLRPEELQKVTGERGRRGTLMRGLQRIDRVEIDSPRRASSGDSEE

O=C(CCc1ccc(F)cc1)OC[C@H]1O[C@@H](Oc2c(-c3ccc(O)c(O)c3)oc3cc(O)cc(O)c3c2=O)[C@H](OC(=O)CCc2ccc(F)cc2)[C@@H](O)[C@H]1O [Compound 14m, 2-(3′,4′-Dihydroxyphenyl)-5,7-dihydroxy-3-β-D-{2″,6″-di-O-[3′″-(4-fluorophenylpropanoyl)]}galactosyl-4H-chromen-4-one]
MIC VISA Mu50 [1]: 32 µg/mL (≈ 41.8 µM) | MIC VRE FN-1 [2]: 16 µg/mL (≈ 20.9 µM) | MIC VRE NCTC 12201 [3]: 16 µg/mL (≈ 20.9 µM) | MIC MSSA 209P [4]: 16 µg/mL (≈ 20.9 µM) | MIC MRSA COL [5]: 32 µg/mL (≈ 41.8 µM) | MIC MRSA N315 [6]: 16 µg/mL (≈ 20.9 µM) | MIC MRSA OM481 [7]: 16 µg/mL (≈ 20.9 µM) | MIC MRSA OM584 [8]: 16 µg/mL (≈ 20.9 µM) | MIC S. Pneumoniae R6 ([9]; Gram-positive, microdilution, MIC after 24 h): 32 µg/mL (≈ 41.8 µM) | MIC (Gram-nagative) K-12 ([10]; MIC after 24 h): >128 µg/mL | MIC (Gram-nagative) PAO1 [11]: >128 µg/mL | IC50 ([12]; supercoiling activity, 37° C., 30 minutes, read-out: IC50 (E. coli DNA gyrase inhibitions)): 1400 nM | IC50 [13]: 7520 nM | IC50 [14]: 2990 nM

O=C(CCc1ccc(O)cc1)O[C@H]1[C@H](Oc2c(-c3ccc(O)c(O)c3)oc3cc(O)cc(O)c3c2=O)O[C@H](CO)[C@@H](O)[C@@H]1OC(=O)CCc1ccc(O)cc1 [Compound 15a, 2-(3′,4′-Dihydroxy)-5,7-dihydroxy-3-β-D-(2″,3″-di-p-hydroxyphenylethylcarboxy)glucosyl-4H-chromen-4-one]
MIC MRSA N315 [15]: 4 µg/mL (≈ 5.26 µM) | MIC MRSA OM481 [16]: 4 µg/mL (≈ 5.26 µM) | MIC MRSA OM58 [17]: 4 µg/mL (≈ 5.26 µM) | MIC MSS 209P [18]: 4 µg/mL (≈ 5.26 µM) | MIC VISA Mu50 [19]: 4 µg/mL (≈ 5.26 µM) | MIC VRE FN-1 [20]: 8 µg/mL (≈ 10.5 µM) | MIC VRE NCTC 12201 [21]: 8 µg/mL (≈ 10.5 µM) | Gyrase inhibitory activity IC50 [22]: 2.54 µg/mL

CCOc1ccc(CCC(=O)O[C@H]2[C@H](Oc3c(-c4ccc(O)c(O)c4)oc4cc(O)cc(O)c4c3=O)O[C@H](CO)[C@@H](O)[C@@H]2OC(=O)CCc2ccc(OCC)cc2)cc1 [Compound 15b, 2-(3′,4′-Dihydroxy)-5,7-dihydroxy-3-β-D-(2″,3″-di-p-ethoxyphenylethylcarboxy)glucosyl-4H-chromen-4-one]
MIC MRSA N315 [15]: 2 µg/mL (≈ 2.45 µM) | MIC MRSA OM481 [16]: 4 µg/mL (≈ 4.9 µM) | MIC MRSA OM58 [17]: 8 µg/mL (≈ 9.79 µM) | MIC MSS 209P [18]: 2 µg/mL (≈ 2.45 µM) | MIC VISA Mu50 [19]: 4 µg/mL (≈ 4.9 µM) | MIC VRE FN-1 [20]: 8 µg/mL (≈ 9.79 µM) | MIC VRE NCTC 12201 [21]: 8 µg/mL (≈ 9.79 µM) | Gyrase inhibitory activity IC50 [22]: 9.23 µg/mL

CCn1cc(C(=O)O)c(=O)c2cc(F)c(N3CCNCC3)cc21 [Norfloxacin, norfloxacin, reference compound]
MIC ([15]; Staphylococcus aureus, read-out: MIC MRSA N315): 2 µg/mL (≈ 6.26 µM) | MIC ([16]; Staphylococcus aureus, read-out: MIC MRSA OM481): 128 µg/mL (≈ 401 µM) | MIC ([17]; Staphylococcus aureus, read-out: MIC MRSA OM58): 64 µg/mL (≈ 200 µM) | MIC ([18]; Staphylococcus aureus, read-out: MIC MSS 209P): 0.5 µg/mL (≈ 1.57 µM) | IC50 ([22]; read-out: Gyrase inhibitory activity IC50 (converted)): 908 nM | MIC ([4]; Staphylococcus aureus, 209P / MSSA, read-out: MIC MSSA 209P): 0.5 µg/mL (≈ 1.57 µM) | MIC ([5]; Staphylococcus aureus, MRSA): 1 µg/mL (≈ 3.13 µM) | MIC ([6]; Staphylococcus aureus, MRSA, read-out: MIC MRSA N315): 2 µg/mL (≈ 6.26 µM) | MIC ([7]; Staphylococcus aureus, MRSA, read-out: MIC MRSA OM481): 64 µg/mL (≈ 200 µM) | MIC ([8]; Staphylococcus aureus, MRSA, read-out: MIC MRSA OM584): 128 µg/mL (≈ 401 µM) | MIC ([9]; Streptococcus pneumoniae, R6, 24 h, read-out: MIC S. Pneumoniae R6): 0.25 µg/mL (≈ 0.783 µM) | MIC ([10]; K12, MIC after 24 h, read-out: MIC (Gram-nagative) K-12): 0.25 µg/mL (≈ 0.783 µM) | MIC ([11]; read-out: MIC (Gram-nagative) PAO1): 0.25 µg/mL (≈ 0.783 µM) | IC50 [12]: 90 nM
